US20080234361A1, “Pharmaceutical Compositions, Methods of Formulation Thereof and Methods of Use Thereof” (Rimonest Ltd., priority 2004, published 2008)
“Also recorded” adds a separate entry of the source.

System: human PC-3 prostate cancer cells
Assay: in vitro assay of PC-3 cell invasion across Matrigel artificial membrane
Assay type: cell-based
Conditions: for X ± σ (X = mean number of invading cells, σ = standard deviation): PC-3 cells, HGF 40 ng/ml induced invasion, fixed total concentration 4 micrograms/ml, 72 hr culture, c+ 33 ± 10.7, c− 3 ± 1.7; for inhibition of PC-3 invasion, result in words: total dose 4 micrograms/ml, Kruskal-Wallis test
Text: In order to determine a possible molecular mechanism of mixtures of conjugated fatty acids and polyphenols according to the present invention, an accepted in vitro assay of cancer cell invasion was employed (Jiang et al., (1995) Regulation of the expression of E-cadherin on human cancer cells by gamma-linolenic acid (GLA). Cancer Res. 55:5043-5048).
Specifically, human PC-3 prostate cancer cells were used as an in vitro model to assess invasion across a Matrigel™ (Becton, Dickenson and Company, Franklin Lakes, N.J.) artificial membrane. Briefly, 6.5 mm diameter polycarbonate membranes (pore size 8 microns) […]. Following gel rehydration, 5×10^4 PC-3 human prostate cancer cells were added to each well. Hepatocyte growth factor/scatter factor (HGF) (Becton, Dickenson & Company, Franklin Lakes, N.J.) was used at 40 ng/ml to induce invasion. The upper chamber contained thested components (i.e. punicic acid, luteolin, caffeic acid or ellagic acid, or a combination of two, three or all four of the chemicals) at a fixed total concentration of 4 micrograms/ml.
Pure compounds (ellagic acid ([…], luteolin [L], caffeic acid [C] and punicic acid […]) were purchased commercially (E, C and L from Sigma Aldrich, Rehovot, Israel; P from Larodan Chemicals; Malmo; Sweden) and assayed as potential invasion inhibitors. The total dose was 4 micrograms/ml in each of 18 trials. The Kruskal-Wallis test was used to measure significance.

Question: Which results are given for `O=c1oc2c(O)c(O)cc3c(=O)oc4c(O)c(O)cc1c4c23` [E, ellagic acid]?
Answer: X ± σ (X = mean number of invading cells, σ = standard deviation): 7.4 ± 2.3; inhibition of PC-3 invasion, result in words: inhibited invasion significantly

Question: How did the “X ± σ (X = mean number of invading cells, σ = standard deviation)” value turn out when `CCCC\C=C/C=C/C=C\CCCCCCCC(=O)O` [P, punicic acid] was run?
Answer: 6.4 ± 1.1

Question: And the “inhibition of PC-3 invasion, result in words” value (“inhibition of PC-3 invasion” below)?
Answer: inhibited invasion significantly

Question: With `O=C(O)/C=C/c1ccc(O)c(O)c1` [C, caffeic acid] as the compound, how does the “X ± σ (X = mean number of invading cells, σ = standard deviation)” value read?
Answer: 16.8 ± 3.4

Question: And the “inhibition of PC-3 invasion” value?
Answer: inhibited invasion significantly; also recorded: much less than that of ellagic acid, punicic acid or luteolin

Question: `O=c1cc(-c2ccc(O)c(O)c2)oc2cc(O)cc(O)c12` [L, luteolin] was tested. Which “X ± σ (X = mean number of invading cells, σ = standard deviation)” value did it give?
Answer: 9 ± 1.6

Question: And the “inhibition of PC-3 invasion” value?
Answer: inhibited invasion significantly
